Measured values from paper PMC11374660, “The novel family of Warbicin® compounds inhibits glucose uptake both in yeast and human cells and restrains cancer cell proliferation” (Frontiers in Oncology, 2024).
Like-named read-outs stand apart in the source and are kept apart here.

Tests used:
[1] = tested on: glucose uptake by tps1Δ yeast cells; experiment: Zero-trans uptake of radioactive glucose in tps1Δ yeast cells; format: cell-based, S. cerevisiae; details: for IC50: Saccharomyces cerevisiae
Method: Zero-trans uptake of radioactively labeled [U-^14C]glucose, [U-^14C]fructose or [U-^14C]galactose by S. cerevisiae cells was determined in accordance with previous studies ([45], [75]). Cells were grown on different carbon sources depending on the experiment. For measuring glucose uptake activity in the tps1Δ and tps1Δ hxtΔ strains, cells were grown on YP medium containing 325 mM glycerol (measurement of 10 s). Typically, for compound characterization and kinetic studies in wild type and tps1Δ strains, cells were (pre)grown on Complete Synthetic medium supplemented with 110 mM galactose (measurement of 10 s). In the experiments on the influence of hexokinase activity on the sugar uptake rate, the measurement duration was shortened to 5 s and cells were always grown on YP medium containing 325 mM glycerol and 430 mM ethanol. After harvesting, cells were washed twice with ice-cold 25 mM MES-buffer pH 6, and resuspended in their respective medium without sugar to a final concentration of 45 mg (wet weight)/mL. The amount of added tracer was estimated to give a response close to at least 1000 counts per min in order to adequately counter background noise. Cells were first preincubated for 10 min at 30°C with the compound to acclimate the cells to the temperature and to allow adequate interaction with the compound prior to uptake. Next, hexose sugar was mixed with the cell suspension, which was then incubated at 30°C for 5 or 10 s, depending on the experiment, after which the cells were rapidly filtered over a glass microfiber filter (Whatman GF/C) and washed three times with ice-cold dH2O. The loaded filter was transferred to a scintillation vial containing 3 mL liquid scintillation cocktail (Ultima-Flo M, Perkin Elmer) and counted using the Hidex 300 SL. Three blank measurements per strain were typically included to account for background signal, for which the cells were first quenched before adding the radioactive label.

[2] = tested on: A549 lung adenocarcinoma cells; experiment: Proliferation of A549 lung adenocarcinoma cells; format: cell-based, human; details: for relative potency in reducing maximal growth rate of A549 cells: 1 mM glucose, 6.25-50 µM
Method: For both adherent A549 and MCF10A H-RAS^V12 cell lines, growth curves were established using the IncuCyte® ZOOM technology. By collecting phase contrast images, the IncuCyte® software provides a calculated confluency percentage from which growth curves can be deducted. The cell number/density was measured by calculating the confluency of phase objects (cells) sticking on the bottom of the well. Cells were seeded at a density of 1000 - 1500 cells/well in a Nunc-Edge™ 96-well plate (Thermo Fisher Scientific) and growth was typically measured over 3 to 5 days. For the measurement of apoptosis induction using the MCF10A H-RAS^V12 cell line, the IncuCyte® Caspase-3/7 green dye was added to the medium in the recommended concentration at the beginning of the growth curve experiment. Apoptosis was detected by taking fluorescent images by excitation at 488 nm followed by IncuCyte® software analysis. Cell growth of the KMS-12-PE multiple myeloma cell line, which grows in suspension, was measured by manual cell counting. Cells were initially seeded at a density of 10^4 cells/well and incubated for 4 days after which the cell number was counted. For all cell lines, the same medium used for pregrowth was also used for the growth curve experiment, albeit with different glucose concentrations depending on the experimental design. With compound administration, the final concentration of DMSO never exceeded 0.1%. Typically, at least four technical repeats were included per condition.

[3] = tested on: 2-deoxyglucose uptake in A549 lung adenocarcinoma cells; experiment: 2-deoxyglucose uptake in A549 lung adenocarcinoma cells; format: cell-based, human
Method: Zero-trans glucose uptake in A549 cells was approximated by measuring the uptake of [1,2-^3H]2-deoxyglucose. For this purpose, A549 cells were pregrown in RPMI medium containing 10 mM glucose in a 24-well plate to a cell density of around 100,000 cells/well. Prior to adding radioactive label, cells were gently washed twice in Krebs-Ringer-HEPES buffer (50 mM HEPES pH 7.4, 137 mM NaCl, 4.7 mM KCl, […], 1.3 mM MgSO4 and 0.1% w/v BSA) at 30°C to remove any residual sugar. RPMI medium without sugar containing the compound intended for treatment, was added to the cells for 15 min at 37°C to allow adequate interaction of the cells with the compound. The uptake measurement was initiated by adding an equal volume of medium containing radiolabeled 2DG. After 3 - 4 min incubation at 37°C, medium was aspirated and cells were gently washed three times with ice-cold Krebs-Ringer-HEPES buffer. Cells were lysed by adding 200 µL of ice-cold 0.1 M NaOH solution and incubating the plate for 10 min at 37°C. Cell lysates were transferred to scintillation vials for subsequent scintillation counting. For blank measurements, cells were incubated with 50 µM Cytochalasin B prior to the uptake measurement.

[4] = tested on: A549 lung adenocarcinoma cells; experiment: Glucose consumption and lactate production over 8 h, A549; format: cell-based, human; details: A549, 25 µM, 1 mM glucose
Method: The influence of WBC compounds on glucose consumption over a longer time period was studied in the A549 adenocarcinoma and KMS-12-PE multiple myeloma cell lines. As such, different parameters needed to be optimized depending on whether cells were adherent or in suspension. As such, A549 cells were incubated at 125,000 cells/well in a 24-well plate in 300 µL RPMI medium for 8 h. For the KMS-12-PE cell line, 100,000 cells/well were incubated in 100 µL RPMI medium in a 96-well plate for 8 h. Medium was collected, spun down and HPLC-analyzed for measuring glucose and lactate levels. Metabolite levels were corrected for cell number, which always varied little over the span of 8 h. For every condition, at least 4 technical repeats were included.

[5] = Solubility of compound stocks; format: physicochemical; details: 100% DMSO
Method: WBC-A and the complete structural analog library ( Supplementary Table 2 ) were purchased from different vendors, i.e. Enamine (n = 185), Life Chemicals (n = 10), LabNetwork (n = 4) and Uorsy (n = 4). WBC compounds in general are very insoluble in aqueous solutions, challenging their solubilization. Throughout this work, WBC compounds were always stock aliquoted at 50 mM concentration in 100% DMSO. In many cases, gentle sonication and heating up to 37°C was necessary to completely solubilize the compound stocks. Whereas WBC-A, -15C, -4C and -11C could be dissolved at 50 mM, some structural analogs remained in smooth or rough suspension, regardless of the concentration. Even though it is recommended to aliquot compound stocks, no significant decrease in compound strength by repeated freeze and thaw cycles in DMSO was observed.

| Compound | IC50 ([1]; read-out: IC50 for inhibition of 2.5 mM glucose uptake) [µM] | type of inhibition of glucose uptake ([1]; tps1Δ yeast cells) | Ki ([1]; tps1Δ yeast cells, read-out: Ki (Dixon plot) for glucose uptake) [µM] | Selected from primary screen for growth inhibition of A549 cells at 50 µM ([2]; RPMI 1 mM glucose) | relative potency in reducing maximal growth rate of A549 cells [2] | inhibition of A549 growth ([2]; RPMI 1 mM glucose, 12.5 µM) | inhibition of A549 growth ([2]; RPMI 1 mM glucose, concentrations higher than 12.5 µM (25, 50 µM)) | inhibition of A549 growth ([2]; RPMI 1 mM or 5 mM glucose, 12.5-50 µM, more pronounced for 1 mM) | type of inhibition of 2-deoxyglucose uptake (Lineweaver-Burk) [3] | K'i for 2-deoxyglucose uptake ([3]; Dixon plot (Ki = K'i) or Cornish-Bowden plot (WBC-11C)) [µM] | Ki ([3]; read-out: Ki for 2-deoxyglucose uptake (Dixon plot)) [µM] | inhibition of glucose consumption and lactate production [4] | concentration at which compound could be dissolved [5] [µM] | IC50 ([1]; read-out: IC50 values for 2.5 mM glucose uptake in tps1∆ cells) [µM] | Selected for having an IC50 ratio (10 mM glucose : 1 mM glucose) of A549 growth higher than WBC-A ([2]; ratio of IC50 on 10 mM and 1 mM glucose, compared to WBC-A) |
| --- | --- | --- | --- | --- | --- | --- | --- | --- | --- | --- | --- | --- | --- | --- | --- |
| Cc1nc(Sc2nnc3n2CCCCC3)c2c(-c3cccs3)csc2n1 [WBC-A] | 20.8 | mixed type of inhibition | 8.35 | Yes | intermediate potency | pronounced inhibition | completely blocked continued cancer cell proliferation | dose-dependent inhibition of growth | noncompetitive type of inhibition | 52.78 | 52.8 | did not cause inhibition | ≥ 50000 | – | – |
| Cc1nc(SCC(=O)c2ccc3c(c2)NC(=O)CO3)c2c(-c3cccs3)csc2n1 [WBC-11C] | – | – | – | Yes | most | – | – | – | uncompetitive | – | – | inhibited glucose consumption and lactate production | ≥ 50000 | 44 | Higher IC50 ratio and confirmed |
